Holding throughout (assay type): cell-based
Experiment [1] has as its system K. pneumoniae UMM producing SHV-5 and KPC-2. Nature of the experiment: Broth microdilution MIC in CAMHB. The following applies: Klebsiella pneumoniae, read-out: Minimum Inhibitory Concentration, K. pneumoniae UMM. Summed up: (§1)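 CLSI broth microdilution in CAMHB: 2-fold compound dilutions inoculated at 2-8×10^5 CFU/mL from 3-5 h log-phase cultures. Incubated at 37 °C for 16-20 h (Enterobacteriaceae, Pseudomonas); MIC read visually as lowest concentration without growth. Strains include hyper-permeable and efflux-deficient mutants.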

The next experiment deals with E. coli 901C. Nature of the experiment: Broth microdilution MIC in CAMHB. The following applies: Escherichia coli; E. coli 901C (hyper-permeable); MHB; read-out: Minimum Inhibitory Concentration, E. coli 901C. Summed up: as §1
For a further experiment, the system named is N. gonorrhoeae H041. Description: Liquid broth MIC in Fastidious broth. The note with it: Neisseria gonorrhoeae, H041, read-out: Minimum Inhibitory Concentration, N. gonorrhoeae H041. In short, it runs like this:
(§2)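 MIC = lowest concentration giving <10% growth relative to untreated wells, scored by eye after ~24 h at 36 °C, 5% CO2. Strains carry mosaic PBP2; inoculum 5×10^5 CFU/mL in Fastidious broth with 2-fold serial compound dilutions.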

In another experiment the test system is N. gonorrhoeae WHO K. Nature of the experiment: Liquid broth MIC in Fastidious broth. The note with it: Neisseria gonorrhoeae, read-out: Minimum Inhibitory Concentration, N. gonorrhoeae WHO K. In short, it runs like this:
as §2

The next experiment deals with N. gonorrhoeae WHO L. Nature of the experiment: Liquid broth MIC in Fastidious broth. The note with it: Neisseria gonorrhoeae; N. gonorrhoeae strain WHO L; Fastidious broth; read-out: Minimum Inhibitory Concentration, N. gonorrhoeae WHO L. Summed up:
(§3)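 Colonies were swabbed from chocolate agar after 24 h growth and standardised by optical density at 600 nm. Compounds were serially diluted twofold in Fastidious broth, and bacteria added to give 5×10^5 CFU/mL. After about 24 h at 36 °C in 5% CO2, the lowest concentration allowing under 10% growth was taken as MIC.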

Experiment [2] relates to N. gonorrhoeae ATCC 49226. Nature of the experiment: Liquid broth MIC in Fastidious broth. The note with it: Neisseria gonorrhoeae, ATCC49226; N. gonorrhoeae strain ATCC 49226; Fastidious broth; read-out: Minimum Inhibitory Concentration, N. gonorrhoeae ATCC 49226. In short, it runs like this:
as §3

A further experiment has as its system N. gonorrhoeae FA1090. Description: Liquid broth MIC in Fastidious broth. The note with it: Neisseria gonorrhoeae; N. gonorrhoeae strain FA1090; Fastidious broth; read-out: Minimum Inhibitory Concentration, N. gonorrhoeae FA1090. Summed up:
as §3

The subject of a further experiment is N. gonorrhoeae WHO G. Description: Liquid broth MIC in Fastidious broth. The following applies: Neisseria gonorrhoeae; N. gonorrhoeae strain WHO G; Fastidious broth; read-out: Minimum Inhibitory Concentration, N. gonorrhoeae WHO G. Summed up: as §3

Values after ≈ are worked out from the molar mass of the structure shown.

`O=C(NCCCN1CCN(C(=O)NC(C(=O)N[C@H]2Cc3cccc(C(=O)O)c3OB2O)c2ncc(O)cc2F)C(=O)C1=O)c1ccc(O)c(O)c1Cl` (stereo partly drawn) [Example 1, (3R)-3-(2-(4-(3-(2-chloro-3,4-dihydroxybenzamido)propyl)-2,3-dioxopiperazine-1-carboxamido)-2-(3-fluoro-5-hydroxypyridin-2-yl)acetamido)-2-hydroxy-3,4-dihydro-2H-benzo[e][1,2]oxaborinine-8-carboxylic acid]: the MIC (in experiment [1]; with E. coli 901C) was 8 to 16 µg/mL (≈ 10.8 to 21.5 µM) each time.

For the compound `C[C@H]1CN(CCNC(=O)c2ccc(O)c(O)c2Cl)C(=O)C(=O)N1C(=O)NC(C(=O)N[C@H]1Cc2cccc(C(=O)O)c2OB1O)c1ncc(O)cc1F` (stereo partly drawn) [Example 2, (3R)-3-(2-((S)-4-(2-(2-chloro-3,4-dihydroxybenzamido)ethyl)-6-methyl-2,3-dioxopiperazine-1-carboxamido)-2-(3-fluoro-5-hydroxypyridin-2-yl)acetamido)-2-hydroxy-3,4-dihydro-2H-benzo[e][1,2]oxaborinine-8-carboxylic acid], the MIC was over 64 µg/mL in the experiment with N. gonorrhoeae H041; over 64 µg/mL in the experiment with N. gonorrhoeae WHO K; over 64 µg/mL with N. gonorrhoeae WHO L; over 64 µg/mL in experiment [2]; 4 to 8 µg/mL (≈ 5.38 to 10.8 µM) in the experiment on N. gonorrhoeae FA1090; over 64 µg/mL with N. gonorrhoeae WHO G. The MIC lay in the range of 2 to 4 µg/mL (≈ 2.69 to 5.38 µM) in experiment [1] and 0.5 to 1 µg/mL (≈ 0.673 to 1.35 µM) in the experiment on E. coli 901C.

Regarding `O=C(NCCCN1CCN(C(=O)NC(C(=O)N[C@H]2Cc3ccc(F)c(C(=O)O)c3OB2O)c2ncc(O)cc2F)C(=O)C1=O)c1ccc(O)c(O)c1Cl` (stereo partly drawn) [Example 3, (3R)-3-(2-(4-(3-(2-chloro-3,4-dihydroxybenzamido)propyl)-2,3-dioxopiperazine-1-carboxamido)-2-(3-fluoro-5-hydroxypyridin-2-yl)acetamido)-7-fluoro-2-hydroxy-3,4-dihydro-2H-benzo[e][1,2]oxaborinine-8-carboxylic acid], the MIC in experiment [1] was in the range of 32 to 64 µg/mL (≈ 42.1 to 84.1 µM); in the experiment on E. coli 901C, 8 to 16 µg/mL (≈ 10.5 to 21 µM).

As to `Nc1nc(C(NC(=O)N2CCN(CCNC(=O)c3ccc(O)c(O)c3Cl)C(=O)C2=O)C(=O)N[C@H]2Cc3ccc(F)c(C(=O)O)c3OB2O)c(F)s1` (stereo partly drawn) [Example 4, (3R)-3-(2-(2-amino-5-fluorothiazol-4-yl)-2-(4-(2-(2-chloro-3,4-dihydroxybenzamido)ethyl)-2,3-dioxopiperazine-1-carboxamido)acetamido)-7-fluoro-2-hydroxy-3,4-dihydro-2H-benzo[e][1,2]oxaborinine-8-carboxylic acid], the MIC in the experiment on N. gonorrhoeae H041 is over 64 µg/mL; in the experiment with N. gonorrhoeae WHO K, over 64 µg/mL; with N. gonorrhoeae WHO L it was over 64 µg/mL; in experiment [2] it was 16 to 32 µg/mL (≈ 21.3 to 42.6 µM); in the experiment with N. gonorrhoeae FA1090, 4 to 8 µg/mL (≈ 5.32 to 10.6 µM); with N. gonorrhoeae WHO G, 4 to 8 µg/mL (≈ 5.32 to 10.6 µM).

As to `O=C(NCCN1CCN(C(=O)NC(C(=O)N[C@H]2Cc3ccc(F)c(C(=O)O)c3OB2O)c2ncc(O)cc2F)C(=O)C1=O)c1c(F)cc(O)c(O)c1Cl` (stereo partly drawn) [Example 5, (3R)-3-(2-(4-(2-(2-chloro-6-fluoro-3,4-dihydroxybenzamido)ethyl)-2,3-dioxopiperazine-1-carboxamido)-2-(3-fluoro-5-hydroxypyridin-2-yl)acetamido)-7-fluoro-2-hydroxy-3,4-dihydro-2H-benzo[e][1,2]oxaborinine-8-carboxylic acid], the MIC is over 64 µg/mL with N. gonorrhoeae H041; over 64 µg/mL with N. gonorrhoeae WHO K; over 64 µg/mL in the experiment with N. gonorrhoeae WHO L; over 64 µg/mL in experiment [2]; 4 to 8 µg/mL (≈ 5.23 to 10.5 µM) in the experiment on N. gonorrhoeae FA1090; 16 to 32 µg/mL (≈ 20.9 to 41.8 µM) in the experiment with N. gonorrhoeae WHO G.

Regarding `Nc1nc(/C(=N/OC[C@H](NC(=O)c2ccc(O)c(O)c2Cl)C(=O)O)C(=O)N[C@H]2Cc3cccc(C(=O)O)c3OB2O)cs1` [Example 6, (R)-3-((Z)-2-(2-aminothiazol-4-yl)-2-(((S)-2-carboxy-2-(2-chloro-3,4-dihydroxybenzamido)ethoxy)imino)acetamido)-2-hydroxy-3,4-dihydro-2H-benzo[e][1,2]oxaborinine-8-carboxylic acid], the MIC with N. gonorrhoeae H041 was over 64 µg/mL; in the experiment with N. gonorrhoeae WHO K, over 64 µg/mL; in the experiment on N. gonorrhoeae WHO L it was over 64 µg/mL; in experiment [2], over 64 µg/mL; with N. gonorrhoeae FA1090, 16 to 32 µg/mL (≈ 25.2 to 50.5 µM); in the experiment on N. gonorrhoeae WHO G, 16 to 32 µg/mL (≈ 25.2 to 50.5 µM).

These data come from patent US20230114728A1 (Venatorx Pharmaceuticals, Inc., priority 2019, published 2023).
